From ChEMBL document CHEMBL1201862, “PubChem BioAssay data set” (2004)
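Values below derive from 48-hour exposures of cells grown in 96-well plates, with endpoints linearly interpolated between the two concentrations bracketing the appropriate inhibition level. GI50 = concentration required for 50% inhibition of growth.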 The source made the active and inactive calls. No stated cut-off is given here; in the data, active = GI50 up to about 1.1 µM and inactive = higher.

Experiments:
Experiment in all cases: DTP human tumour cell line panel, 48 h
SK-MEL-28 = tested on: SK-MEL-28
ACHN = tested on: ACHN
MCF7 = tested on: MCF7
SF-268 = tested on: SF-268
SK-OV-3 = tested on: SK-OV-3
MDA-MB-435 = tested on: MDA-MB-435
OVCAR-5 = tested on: OVCAR-5
BT-549 = tested on: BT-549
SK-MEL-2 = tested on: SK-MEL-2
SNB-75 = tested on: SNB-75
CCRF-CEM = tested on: CCRF-CEM
NCI-H226 = tested on: NCI-H226
786-0 = tested on: 786-0
HOP-62 = tested on: HOP-62
IGROV-1 = tested on: IGROV-1
NCI-H522 = tested on: NCI-H522
TK-10 = tested on: TK-10
MOLT-4 = tested on: MOLT-4
K562 = tested on: K562

| Structure (SMILES) | GI50 (SK-MEL-28) | GI50 (ACHN) | GI50 (MCF7) | GI50 (SF-268) | GI50 (SK-OV-3) | GI50 (MDA-MB-435) | GI50 (OVCAR-5) | GI50 (BT-549) | GI50 (SK-MEL-2) | GI50 (SNB-75) | GI50 (CCRF-CEM) | GI50 (NCI-H226) | GI50 (786-0) | GI50 (HOP-62) | GI50 (IGROV-1) | GI50 (NCI-H522) | GI50 (TK-10) | GI50 (MOLT-4) | GI50 (K562) |
| --- | --- | --- | --- | --- | --- | --- | --- | --- | --- | --- | --- | --- | --- | --- | --- | --- | --- | --- | --- |
| COc1ccc(C2C3=C(N=C4SC(C(C)=O)=C(C)N42)c2ccccc2CC3)cc1 (stereo not given) | > 100 µM (inactive) | > 100 µM (inactive) | 92.7 µM (inactive) | > 100 µM (inactive) | > 100 µM (inactive) | > 100 µM (inactive) | > 100 µM (inactive) | 81.8 µM (inactive) | > 100 µM (inactive) | > 100 µM (inactive) | 28.8 µM (inactive) | 18.7 µM (inactive) | > 100 µM (inactive) | > 100 µM (inactive) | 10.1 µM (inactive) | – | – | – | – |
| CC1(C)O[C@H]2Cn3c(c(C#N)c4ccccc43)[C@H]2O1 | > 100 µM (inactive) | > 100 µM (inactive) | > 100 µM (inactive) | > 100 µM (inactive) | > 100 µM (inactive) | > 100 µM (inactive) | > 100 µM (inactive) | > 100 µM (inactive) | > 100 µM (inactive) | 39.8 µM (inactive) | – | – | > 100 µM (inactive) | > 100 µM (inactive) | > 100 µM (inactive) | > 100 µM (inactive) | > 100 µM (inactive) | – | – |
| N#CC(Nc1ccccc1)c1ccc(C(C#N)Nc2ccccc2)cc1 (stereo not given) | 41.2 µM (inactive) | 22.3 µM (inactive) | 29 µM (inactive) | > 100 µM (inactive) | > 100 µM (inactive) | 13.7 µM (inactive) | > 100 µM (inactive) | 38.6 µM (inactive) | > 100 µM (inactive) | – | 5.07 µM (inactive) | > 100 µM (inactive) | 36.5 µM (inactive) | – | 34.6 µM (inactive) | > 100 µM (inactive) | 28.4 µM (inactive) | 32.2 µM (inactive) | 0.724 µM (active) |
| CCOC(=O)c1cc([N+](=O)[O-])c(Sc2ncnc3nc[nH]c23)c([N+](=O)[O-])c1 | 14.3 µM (inactive) | 6.85 µM (inactive) | 1.24 µM (inactive) | 4.5 µM (inactive) | 0.308 µM (active) | 2.47 µM (inactive) | 1.66 µM (inactive) | 6.32 µM (inactive) | 8.89 µM (inactive) | – | 1.27 µM (inactive) | 5.61 µM (inactive) | 2.79 µM (inactive) | 11.1 µM (inactive) | 1.26 µM (inactive) | 0.643 µM (active) | 1.09 µM (active) | 1.87 µM (inactive) | 0.53 µM (active) |
